Source: PMC10611374, “Characterization of the Hemolytic Activity of Mastoparan Family Peptides from Wasp Venoms” (Toxins, 2023)
≈ marks a conversion by molar mass, not a printed value. Where two headings read alike, the source gives them in different places. Ends that are not written are not given here.

Columns and labels:
[1] = system: human red blood cells (HRBCs); test: Hemolytic assay on human red blood cells; assay type: cell-based; conditions: for HRBC Hemolysis (hemolysis rate at 320 μg/mL) / EC50: human red blood cells 5% (v/v) in PBS, 37 °C 1 h, OD 540 nm; for HRBC Hemolysis (hemolysis rate at 320 μg/mL): peptide 320 μg/mL (highest dose), PBS = 0%, mean of three independent experiments; for EC50: four-parameter logistic fit of mean of three independent experiments, '-' = hemolytic activity too low to calculate the EC50; for hemolytic activity on HRBCs, result in words: mutants relative to Protopolybia-MPIII
Method: (§1) Fresh human red blood cells were obtained from healthy donors and collected in a sterile blood collecting vessel covered with sodium citrate (1:9) as the anticoagulating agent. Rat red blood cells were collected from the abdominal aorta in sterile blood-collecting vessels coated with sodium citrate (1:4) after the SD rats were anaesthetized with isoflurane. Then, the cells were washed three times with phosphate-buffered saline via centrifugation (1000× g, 4 °C, 5 min) and prepared in a sterile 96-well polypropylene plate to achieve a final concentration of 5% (v/v). Twofold dilutions of the peptides were prepared in PBS to 100 μL and mixed with an equal volume of HRBCs/RRBCs suspension to final peptide concentrations ranging from 10 to 320 μg/mL. After coincubation at 37 °C for 1 h, the plate was centrifuged (2000× g, 4 °C, 20 min), and 100 μL of supernatant was taken for optical density measurements at 540 nm using a microtiter plate reader (SpectraMax 190). The HRBCs/RRBCs were assayed with PBS (blank) or 1% Triton X-100 (positive control) to represent 0% and 100% hemolysis, respectively. The percent hemolysis was calculated according to the following equation: Hemolysis Rate (%) = 100% × (Amastoparans − Ablank)/(ATriton X-100 − Ablank). Three independent experiments were performed, and the mean hemolysis rate at each dose was used to calculate the EC50 in Sigmaplot software.
(§2) Statistical analysis was performed with GraphPad Prism software (version 5.0, San Diego, CA, USA). A two-tailed Student’s t-test was used to calculate the statistical probability in this study. Differences in the data were considered to be statistically significant when the p value was equal to or less than 0.05. The curve of hemolysis induced by wasp mastoparans was generated in SigmaPlot 12.5 software, and the EC50 was calculated according to the equation (Four Parameter Logistic Curve): y = min + (max − min)/(1 + (x/EC50)^−Hillslope). The heat map of hemolytic activity of mastoparan peptide was analysed in R software which is based on the value of log2(EC50).

[2] = system: rat red blood cells (RRBCs); test: Hemolytic assay on rat red blood cells; assay type: cell-based, SD rats; conditions: for RRBC Hemolysis (hemolysis rate at 320 μg/mL) / EC50: rat red blood cells 5% (v/v) in PBS, 37 °C 1 h, OD 540 nm; for RRBC Hemolysis (hemolysis rate at 320 μg/mL): peptide 320 μg/mL (highest dose), PBS = 0%, mean of three independent experiments; for EC50: four-parameter logistic fit of mean of three independent experiments, '-' = hemolytic activity too low to calculate the EC50
Method: as §1, §2

S. aureus = conditions: reported antibacterial activity; reference per peptide in Table 3; cited from earlier work
E. coli = conditions: reported antibacterial activity; reference per peptide in Table 3; cited from earlier work
B. subtilis = conditions: reported antibacterial activity; reference per peptide in Table 3; cited from earlier work
[3] = peptide 10-320 μg/mL twofold dilutions, 1% Triton X-100 = 100%, read-out: HRBC EC50 (hemolytic activity)
[4] = peptide 10-320 μg/mL twofold dilutions, 1% Triton X-100 = 100%, read-out: RRBC EC50 (hemolytic activity)
[5] = Table 2 series, read-out: HRBC EC50 (hemolytic activity), Protopolybia-MPIII and mutants
[6] = Table 2 series, read-out: RRBC EC50 (hemolytic activity), Protopolybia-MPIII and mutants

Compound | HRBC Hemolysis (hemolysis rate at 320 μg/mL) ([1]; 1% Triton X-100 = 100%) [%] | EC50 [1, 3] [µM] | RRBC Hemolysis (hemolysis rate at 320 μg/mL) ([2]; 1% Triton X-100 = 100%) [%] | EC50 [2, 4] [µM] | EC50 [1, 5] [µM] | EC50 [2, 6] [µM] | further results
CC[C@H](C)[C@H](NC(=O)[C@H](CO)NC(=O)[C@H](CCCCN)NC(=O)[C@H](CC(C)C)NC(=O)[C@H](CCCCN)NC(=O)[C@@H](N)CC(C)C)C(=O)N[C@H](C(=O)N[C@@H](CO)C(=O)N[C@@H](Cc1c[nH]c2ccccc12)C(=O)N[C@@H](C)C(=O)N[C@@H](CCCCN)C(=O)N[C@@H](CCCCN)C(=O)N[C@H](C(=O)N[C@@H](CC(C)C)C(N)=O)C(C)C)C(C)C [Mastoparan-B] | 22 | > 400 | 19 | > 400 | – | – | MIC S. aureus (S. aureus): 60 µM (≈ 96.7 µg/mL); MIC E. coli (E. coli): 10 µM (≈ 16.1 µg/mL)
INLKAIAAFAKKLL-NH2 [Mastoparan-T(D)] | 15 | > 400 | 19 | > 400 | – | – | MIC S. aureus (S. aureus): 15.9 µM; MIC E. coli (E. coli): 5.3 µM
INLKAIAALAKKLL-NH2 [Mastoparan-M] | 18 | > 400 | 28 | > 400 | – | – | MIC S. aureus (S. aureus): 3.38 µM; MIC E. coli (E. coli): 13.5 µM
INLKGLIKKVASLLT-OH [EpVP1] | 9 | > 400 | 0 | > 400 | – | – | hemolytic activity on HRBCs, result in words [1]: almost no hemolytic activity; hemolytic activity on RRBCs, result in words [2]: almost no hemolytic activity; MIC S. aureus (S. aureus): 100 µM; MIC E. coli (E. coli): 25 µM; MIC B. subtilis (B. subtilis): 5 µM
INMKASAAVAKKLL-NH2 [MP-VB1] | 0 | > 400 | 7 | > 400 | – | – | MIC S. aureus (S. aureus): 2.5 µM; MIC E. coli (E. coli): 10.3 µM
INWLKLGKAIIDAL-NH2 [Agelaia-MPI] | 100 | 3.7 ± 0.14 | 98 | 7 ± 0.7 | – | – | –
INWLKLGKAVIAAL-NH2 [Protopolybia-MPIII-3] | – | – | – | – | 16.8 ± 1 | 21.5 ± 1.2 | –
INWLKLGKAVIAIL-NH2 [Protopolybia-MPIII-10] | – | – | – | – | 11.3 ± 1.2 | 11.7 ± 1 | –
INWLKLGKAVIDAL-NH2 [Protopolybia-MPIII] | 96 | 61.9 ± 8.3 | 93 | 34.6 ± 2.8 | – | 42.8 ± 2.1 | –
INWLKLGKAVIDIL-NH2 [Protopolybia-MPIII-4] | – | – | – | – | 11.3 ± 6.2 | 19.8 ± 1.2 | –
INWLKLGKAVSAAL-NH2 [Protopolybia-MPIII-8] | – | – | – | – | 308 ± 6.2 | 444 ± 2.1 | –
INWLKLGKAVSAIL-NH2 [Protopolybia-MPIII-11] | – | – | – | – | 141 ± 2.4 | 134 ± 2.2 | –
INWLKLGKAVSDAL-NH2 [Protopolybia-MPIII-2] | – | – | – | – | 673 ± 189 | 639.5 ± 1.6 | –
INWLKLGKAVSDIL-NH2 [Protopolybia-MPIII-9] | – | – | – | – | 167 ± 2.7 | 161.7 ± 1.3 | –
INWLKLGKKILGAI-NH2 [Pm-R1] | 100 | 72 ± 8.5 | 92 | 105 ± 2.2 | – | – | –
INWLKLGKKILGAL-NH2 [PDD-B] | 100 | 48.5 ± 3.4 | 100 | 55.6 ± 4.1 | – | – | –
INWLKLGKKMMSAL-NH2 [MP] | 87 | 124 ± 15.3 | 10 | – | – | – | –
INWLKLGKKVIAAL-NH2 [Protopolybia-MPIII-6] | – | – | – | – | 110 ± 2.5 | 108 ± 3.2 | –
INWLKLGKKVIAIL-NH2 [Protopolybia-MPIII-12] | – | – | – | – | 43.9 ± 3.6 | 55.2 ± 2.2 | –
INWLKLGKKVIDAL-NH2 [Protopolybia-MPIII-1] | – | – | – | – | 176.4 ± 1 | 158 ± 2.3 | –
INWLKLGKKVIDIL-NH2 [Protopolybia-MPIII-7] | – | – | – | – | 37.8 ± 3.7 | 57.5 ± 2.7 | –
INWLKLGKKVSAIL-NH2 [Protopolybia-MP I] | 5 | > 400 | 5 | > 400 | > 400 | > 400 | hemolytic activity on HRBCs, result in words [1]: almost no hemolytic activity
INWLKLGKMVIDAL-NH2 [Polybia-MP II] | 91 | 23.3 ± 1.4 | 100 | 29.1 ± 1.5 | – | – | EC50 ([1]; peptide 10-320 μg/mL twofold dilutions, 1% Triton X-100 = 100%, listed as Polybia-MPII, read-out: HRBC EC50 (hemolytic activity)): ≤ 400 µM
INWLKLGKQILGAL-NH2 [Pm-R3] | 100 | 32.3 ± 1.7 | 100 | 73.5 ± 5.1 | – | – | –
LNFKALAALAKKIL-NH2 [Pm-R2] | 66 | 166 ± 8 | 34 | 250 ± 9.9 | – | – | –
LNLKGLFKKVASLLT [Eumenitin-F] | 67 | 157 ± 2.6 | 44 | 207.1 ± 2 | – | – | –
LNLKGLIKKVASLLN-OH [Eumenitin-R] | 5 | > 400 | 7 | > 400 | – | – | hemolytic activity on HRBCs, result in words [1]: almost no hemolytic activity; hemolytic activity on RRBCs, result in words [2]: almost no hemolytic activity; MIC S. aureus (S. aureus): 60 µM; MIC E. coli (E. coli): 30 µM
VDWKKIGQHILSVL-NH2 [Mastoparan-J] | 100 | 69.5 ± 3.2 | 100 | 60.1 ± 1.3 | – | – | –
